Assay results from PubChem BioAssay AID1645861 (Buhrlage Lab, Dana-Farber Cancer Institute and Novartis …, 2021).
Active and inactive are the calls of the source.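 Rule for the calls: active = compounds whose peak USP7 inhibition across the dose series reached 30% or more; inactive = the rest.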

biological target: Ubiquitin carboxyl-terminal hydrolase 7 (Homo sapiens) (UniProt Q93009); test: Biochemical concentration-response for ubiquitin-specific peptidase 7 DUB inhibitors, verifying primary hits (AID 1645861); conditions: purified USP7, Ub-rhodamine cleavage fluorescence, 60 min
Sequence (Q93009 whole entry, looked up): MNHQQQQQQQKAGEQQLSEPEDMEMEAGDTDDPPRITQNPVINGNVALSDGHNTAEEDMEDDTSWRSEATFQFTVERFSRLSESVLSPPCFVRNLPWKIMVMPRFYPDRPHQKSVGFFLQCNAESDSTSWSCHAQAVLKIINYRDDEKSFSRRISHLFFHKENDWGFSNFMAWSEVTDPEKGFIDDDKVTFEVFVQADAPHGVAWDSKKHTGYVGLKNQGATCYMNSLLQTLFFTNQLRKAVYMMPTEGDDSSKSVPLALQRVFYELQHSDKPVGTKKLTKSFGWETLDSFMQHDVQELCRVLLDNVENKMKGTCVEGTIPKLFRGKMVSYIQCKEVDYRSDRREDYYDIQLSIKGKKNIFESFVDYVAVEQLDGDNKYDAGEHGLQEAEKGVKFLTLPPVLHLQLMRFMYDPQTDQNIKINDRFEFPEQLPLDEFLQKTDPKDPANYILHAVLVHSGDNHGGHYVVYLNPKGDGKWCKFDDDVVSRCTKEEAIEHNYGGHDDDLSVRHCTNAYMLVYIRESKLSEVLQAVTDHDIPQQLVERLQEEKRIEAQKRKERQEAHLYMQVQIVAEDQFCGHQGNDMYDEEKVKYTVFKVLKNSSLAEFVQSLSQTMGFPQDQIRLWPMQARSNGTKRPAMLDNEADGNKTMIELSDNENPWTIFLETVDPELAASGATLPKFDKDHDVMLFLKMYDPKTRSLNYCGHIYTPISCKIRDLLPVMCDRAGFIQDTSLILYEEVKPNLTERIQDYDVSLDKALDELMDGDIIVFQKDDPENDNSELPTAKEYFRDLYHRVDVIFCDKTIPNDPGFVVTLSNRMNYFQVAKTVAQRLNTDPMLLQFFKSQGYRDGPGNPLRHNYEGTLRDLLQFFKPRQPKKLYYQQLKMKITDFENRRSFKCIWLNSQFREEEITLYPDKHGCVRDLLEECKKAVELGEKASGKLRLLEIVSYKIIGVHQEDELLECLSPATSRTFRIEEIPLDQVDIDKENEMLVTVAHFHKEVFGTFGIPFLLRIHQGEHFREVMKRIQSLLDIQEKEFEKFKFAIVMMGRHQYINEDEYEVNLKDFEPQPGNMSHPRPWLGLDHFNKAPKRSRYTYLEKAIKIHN

Q: How did the IC50 turn out when `O=C(Nc1nccs1)C1c2ccccc2C(=O)N(Cc2ccccc2)C12CCCC2` (stereo not given) was run?
A: > 50 µM (inactive)

Q: Which IC50 does the source give for `Cc1ccc(-n2cc(-c3noc(C(=O)Nc4ccc(F)cc4C)n3)nn2)cc1` here?
A: > 50 µM (inactive)

Q: Which IC50 does the source give for `CC1=CC(=O)C(C2=C(O)C(=O)C(C)=CC2=O)=C(O)C1=O` here?
A: > 50 µM (inactive)

Q: How did the IC50 turn out when `Cc1cc(=O)n(CC(=O)Nc2ccccc2C)c(Nc2ccc(F)cc2)n1` was run?
A: > 50 µM (inactive)

Q: With `O=C(CCn1c(=O)c2ccccc2n(Cc2ccccc2F)c1=O)NCc1ccco1` as the compound, how does the IC50 read?
A: > 50 µM (inactive)

Q: Which IC50 does the source give for `O=C(COc1ccccc1)Nc1ccc(-c2nc3cnccc3o2)c(O)c1` here?
A: > 50 µM (inactive)

Q: How did the IC50 turn out when `Cc1[nH]nc(NC(=O)C2COc3ccccc3O2)c1-c1ccccc1` (stereo not given) was run?
A: > 50 µM (inactive)

Q: `O=C(Cn1c(=O)n(CCC(=O)N2CCc3ccccc3C2)c(=O)c2ccccc21)NCc1ccccc1Cl` was tested. Which IC50 did it give?
A: > 50 µM (inactive)

Q: Which IC50 does the source give for `O=c1cc(-c2ccc(O)c(O)c2)oc2cc(O)cc(O)c12` here?
A: 2.81 µM

Q: Which IC50 does the source give for `N#Cc1ccccc1NC(=O)c1cc2c(s1)-c1ccccc1S(=O)(=O)C2` here?
A: > 50 µM (inactive)

Q: How did the IC50 turn out when `COc1ccc(OC)c(NC(=O)Cn2c(=O)n(C3CCCCC3)c(=O)c3ccccc32)c1` was run?
A: > 50 µM (inactive)

Q: Which IC50 does the source give for `O=C(Nc1ccccc1Cc1ccccc1)c1nc2n(n1)-c1ccccc1S(=O)(=O)N2` here?
A: > 50 µM (inactive)

Q: Which IC50 does the source give for `Cc1ccc(C(=O)NC(C)c2ccccc2)cc1NC(=O)c1nsc2ccccc12` (stereo not given) here?
A: > 50 µM (inactive)

Q: How did the IC50 turn out when `Cn1nc(C(=O)N2CCC(c3ccccc3)C2)c2c1-c1ccsc1CC2` (stereo not given) was run?
A: > 50 µM (inactive)

Q: `COc1ccc(Cl)cc1NC(=O)COC(=O)c1cc2ccccc2oc1=O` was tested. Which IC50 did it give?
A: > 50 µM (inactive)

Q: With `Cc1ccc2[nH]c3c(=O)n(Cc4ccc(N(C)C)cc4)cnc3c2c1` as the compound, how does the IC50 read?
A: > 50 µM (inactive)

Q: For `Cn1c2ccccc2c(=O)c2c(=O)n(-c3cccc(Cl)c3)c(-c3cccs3)nc21`, which IC50 is on record?
A: 35.1 µM

Q: With `O=c1[nH]c(C2CCN(S(=O)(=O)c3ccc(S(=O)(=O)NC4CCCC4)cc3)CC2)nc2c1nnn2Cc1cccc(Cl)c1` as the compound, how does the IC50 read?
A: > 50 µM (inactive)

Q: How did the IC50 turn out when `CCCCCCCCCCCC1=C(O)C(=O)C=C(O)C1=O` was run?
A: 14.7 µM

Q: Which IC50 does the source give for `COc1ccc(C2/C(=C(\O)c3ccccc3)C(=O)C(=O)N2c2nc3ccc(F)cc3s2)cc1` (stereo not given) here?
A: 23.7 µM

Q: With `CCOC(=O)c1ccc(Oc2sccc2[N+](=O)[O-])cc1` as the compound, how does the IC50 read?
A: 10.7 µM

Q: With `CCCCCC1OC(=O)c2c(C)cccc2Oc2ccc(O)c(C=O)c2/C=C/C1O` (stereo not given) as the compound, how does the IC50 read?
A: > 50 µM (inactive)

Q: Which IC50 does the source give for `Cc1cc(C(F)(F)F)n2nc(C3CCN(C(=O)c4cnn(C)c4C)C3)cc2n1` (stereo not given) here?
A: > 50 µM (inactive)

Q: With `COc1ccc(Cl)cc1NC(=O)Cn1c(=O)n(CCCCC(=O)NCCc2ccccc2)c(=O)c2ccccc21` as the compound, how does the IC50 read?
A: > 50 µM (inactive)

Q: For `COC(=O)c1ccccc1NC(=O)Cn1c(=O)n(CCCC(=O)NCc2ccco2)c(=O)c2ccccc21`, which IC50 is on record?
A: > 50 µM (inactive)

Q: `COc1ccc(NC(=O)Cn2c(=O)n(CCCC(=O)NC3CCCC3)c(=O)c3cc(Cl)ccc32)c(OC)c1` was tested. Which IC50 did it give?
A: > 50 µM (inactive)

Q: For `CCCCCCCC1OC(=O)Cc2cc(O)c(O)c(O)c21` (stereo not given), which IC50 is on record?
A: > 50 µM (inactive)

Q: For `CCOC(=O)C1CCN(Cc2cc(=O)oc3cc(O)c(O)cc23)CC1`, which IC50 is on record?
A: 6.18 µM

Q: Which IC50 does the source give for `CC(C)[C@H]1CC[C@@]2(CO2)[C@H]2C(=O)OCC(C(=O)O)=C[C@H]12` here?
A: > 50 µM (inactive)

Q: For `Cc1cc(C(=O)NC2(O)C(=O)c3ccccc3C2=O)n(C)n1`, which IC50 is on record?
A: > 50 µM (inactive)

Q: `Cc1ccc(C(=O)c2cn(CC(=O)Nc3ccc4c(c3)OCO4)c3ccccc3c2=O)cc1` was tested. Which IC50 did it give?
A: > 50 µM (inactive)

Q: For `FC(F)(F)c1ccc(Nc2nnnc3ccccc23)cc1`, which IC50 is on record?
A: 20.5 µM

Q: Which IC50 does the source give for `CC/C=C\C/C=C\C/C=C\CCCCCCCC(=O)O` here?
A: 25.6 µM

Q: Which IC50 does the source give for `CCOc1ccc(-c2nnc(-c3cnc4onc(C5CCCC5)c4c3)o2)cc1` here?
A: > 50 µM (inactive)

Q: `Cc1ccc(NC(=O)Cc2nnc3cc(-c4nc(C)no4)ccn23)cc1` was tested. Which IC50 did it give?
A: 45.4 µM

Q: How did the IC50 turn out when `O=C(CCCCCn1c(=O)c2sccc2n(CC(=O)c2ccc(Cl)c(Cl)c2)c1=O)NCc1ccc2c(c1)OCO2` was run?
A: > 50 µM (inactive)

Q: `O=C(CCCc1nnc2c(=O)n(-c3cccc(F)c3)ccn12)NCc1ccc(F)cc1` was tested. Which IC50 did it give?
A: > 50 µM (inactive)

Q: With `CC(=O)[C@H]1c2c(c(O)c3c(O)cccc3c2-c2c3c(c(O)c4c(O)cccc24)C(=O)C[C@](C)(O)[C@H]3C(C)=O)C(=O)C[C@]1(C)O` as the compound, how does the IC50 read?
A: > 50 µM (inactive)

Q: How did the IC50 turn out when `O=C(Cn1cc(C(=O)C(F)(F)F)c2cc(Br)ccc21)N1CCc2ccccc21` was run?
A: > 50 µM (inactive)

Q: How did the IC50 turn out when `COc1cc2c(=O)n(CC3CCCO3)c(=O)n(CC(=O)c3ccc4c(c3)OCO4)c2cc1OC` (stereo not given) was run?
A: > 50 µM (inactive)

Q: `O=C1C=C(O)c2c(O)cccc2C1=O` was tested. Which IC50 did it give?
A: > 50 µM (inactive)

Q: For `COc1ccccc1CNC(=O)CCCCn1c(=O)c2ccccc2n(Cc2ccc(C)cc2)c1=O`, which IC50 is on record?
A: > 50 µM (inactive)

Q: For `NS(=O)(=O)c1cccc(NC(=O)/C=C/c2cn(-c3ccccc3)nc2-c2cccc([N+](=O)[O-])c2)c1`, which IC50 is on record?
A: > 50 µM (inactive)

Q: For `Cc1ccc2[nH]c(=O)c(-c3nc4ccccn4c3NCc3ccccc3)cc2c1`, which IC50 is on record?
A: > 50 µM (inactive)

Q: With `CN(C)[C@H]1C(=O)C(C(N)=O)=C(O)C2(O)C(=O)C3=C(O)c4c(O)cccc4C(C)(O)C3C(O)C12` (stereo not given in full) as the compound, how does the IC50 read?
A: 34.1 µM
